Experiments:
[1] = tested on: Phospho-Rb (Ser807/811); assay: Phospho-Retinoblastoma (pRB) Cellular Assay; type: cell-based; details: Homo sapiens, OVCAR-3, NIH OVCAR3 cells, 24 hours
How it was run: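 OVCAR3 cells seeded overnight, then dosed with serial dilutions for 24 h at 37° C. Lysed with kit mix plus phosphatase inhibitor, ≥4 h at room temperature, read on EnVision; 100% response set by reference compound at 10 μM, giving IC50 and Ymax.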

[2] = tested on: MKN1 gastric carcinoma xenograft model; assay: In vivo xenograft tumor efficacy study, MKN1; set-up: species or system mice
[3] = molecular target: GSPT1 (Homo sapiens, UniProt P15170+Q96SW2); assay: GSPT1 Cellular Degradation Assay (DF15-GSPT1-ePL); type: cell-based; set-up: expressed in transfected cells; details: DF15-GSPT1-ePL cells, 20 hours
GSPT1, sequence (P15170 whole entry, the tested form may be a part): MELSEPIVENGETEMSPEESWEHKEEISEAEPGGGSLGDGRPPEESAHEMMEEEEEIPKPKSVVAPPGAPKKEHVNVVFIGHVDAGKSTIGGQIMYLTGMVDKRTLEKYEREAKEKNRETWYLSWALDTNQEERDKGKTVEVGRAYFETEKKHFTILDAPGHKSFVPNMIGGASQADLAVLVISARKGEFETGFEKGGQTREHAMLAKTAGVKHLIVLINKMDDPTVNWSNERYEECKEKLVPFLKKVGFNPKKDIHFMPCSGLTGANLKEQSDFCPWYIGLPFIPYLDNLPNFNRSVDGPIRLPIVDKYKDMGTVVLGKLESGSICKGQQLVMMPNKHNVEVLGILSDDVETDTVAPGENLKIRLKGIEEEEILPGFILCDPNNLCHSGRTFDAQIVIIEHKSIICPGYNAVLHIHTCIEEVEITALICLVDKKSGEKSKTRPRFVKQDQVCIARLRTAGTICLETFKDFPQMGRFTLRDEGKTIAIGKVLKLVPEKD
GSPT1, sequence (Q96SW2 whole entry, the tested form may be a part): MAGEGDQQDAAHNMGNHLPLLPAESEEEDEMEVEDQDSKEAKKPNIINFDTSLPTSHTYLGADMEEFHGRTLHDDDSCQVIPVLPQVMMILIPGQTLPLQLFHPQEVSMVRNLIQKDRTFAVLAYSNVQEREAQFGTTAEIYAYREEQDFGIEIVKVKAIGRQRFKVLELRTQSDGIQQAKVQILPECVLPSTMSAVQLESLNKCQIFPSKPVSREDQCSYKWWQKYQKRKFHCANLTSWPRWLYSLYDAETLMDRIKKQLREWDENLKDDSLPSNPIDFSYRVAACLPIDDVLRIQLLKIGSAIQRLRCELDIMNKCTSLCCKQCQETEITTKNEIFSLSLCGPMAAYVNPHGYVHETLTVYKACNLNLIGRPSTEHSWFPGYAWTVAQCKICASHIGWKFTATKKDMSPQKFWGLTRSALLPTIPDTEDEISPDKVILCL
GSPT1, sequence (Q16531 whole entry partner, the tested form may be a part): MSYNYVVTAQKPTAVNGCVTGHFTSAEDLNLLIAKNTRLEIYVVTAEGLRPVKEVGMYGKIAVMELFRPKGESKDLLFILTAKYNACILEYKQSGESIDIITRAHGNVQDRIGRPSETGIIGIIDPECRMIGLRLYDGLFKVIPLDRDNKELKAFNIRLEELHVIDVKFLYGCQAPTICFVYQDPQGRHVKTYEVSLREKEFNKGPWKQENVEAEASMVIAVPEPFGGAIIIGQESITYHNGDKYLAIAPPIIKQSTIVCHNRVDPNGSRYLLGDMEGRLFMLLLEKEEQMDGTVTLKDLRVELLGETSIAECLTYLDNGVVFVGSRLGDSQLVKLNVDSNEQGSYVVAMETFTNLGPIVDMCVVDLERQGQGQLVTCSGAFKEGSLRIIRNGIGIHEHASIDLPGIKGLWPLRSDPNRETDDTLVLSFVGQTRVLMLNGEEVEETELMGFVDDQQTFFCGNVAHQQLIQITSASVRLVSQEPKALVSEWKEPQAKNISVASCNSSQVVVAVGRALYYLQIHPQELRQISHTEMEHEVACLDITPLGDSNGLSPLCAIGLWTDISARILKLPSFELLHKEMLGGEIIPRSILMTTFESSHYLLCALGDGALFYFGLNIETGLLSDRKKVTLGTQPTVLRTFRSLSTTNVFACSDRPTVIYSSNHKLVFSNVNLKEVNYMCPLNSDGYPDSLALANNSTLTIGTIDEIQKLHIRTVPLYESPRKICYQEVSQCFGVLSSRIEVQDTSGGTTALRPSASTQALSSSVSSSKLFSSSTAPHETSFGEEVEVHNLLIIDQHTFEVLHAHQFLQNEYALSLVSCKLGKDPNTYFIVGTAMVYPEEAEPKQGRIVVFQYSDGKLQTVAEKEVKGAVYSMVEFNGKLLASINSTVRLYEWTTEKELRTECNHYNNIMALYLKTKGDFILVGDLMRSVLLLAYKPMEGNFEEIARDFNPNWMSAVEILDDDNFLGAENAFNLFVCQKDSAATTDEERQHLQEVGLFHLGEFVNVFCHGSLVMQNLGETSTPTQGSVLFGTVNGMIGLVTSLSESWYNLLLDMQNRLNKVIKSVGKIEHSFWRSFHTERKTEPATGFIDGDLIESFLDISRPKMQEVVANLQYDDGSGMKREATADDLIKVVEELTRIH
How it was run: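 Human DF15 cells co-expressing a GSPT1–ePL fusion were treated with compound in RPMI 1640/10% FBS for 20 h at 37 °C. GSPT1 level was read by enzyme-fragment-complementation luminescence after 60 min with detection reagent. The reference degrader at […] defined 75% response; DC50 and Dmax were reported.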

COc1c(COC(=O)Nc2ccc(Oc3ccc(F)c(F)c3)cc2)ccc2c1C(=O)N([C@H]1CCC(=O)NC1=O)C2 (single isomer, unassigned) [Example 35, {2-[(3 S)-2,6-dioxopiperidin-3-yl]-4-methoxy-3-oxo-2,3-dihydro-1H-isoindol-5-yl}methyl N-[4-(3,4-difluorophenoxy)phenyl]carbamate]
IC50 ([1]; concentration giving 50% response): 85 nM
Emax ([1]; maximum response, reference compound at 10 μM = 100%, read-out: pRB Ymax): 114%
tumor growth inhibition (TGI) ([2]; MKN1 gastric carcinoma xenograft, 30 mpk, QDx28 (as printed in text)): 95%
Tumor efficacy, TGI (tumor growth inhibition) ([2]; MKN1 stomach, 10 mg/kg PO, QDx28): 95% TGI
anti-tumor activity ([2]; MKN1 xenografts, repeated dosing): dose-dependent anti-tumor activity
DC50 [3]: > 14000 nM
Dmax [3]: 46%
